Assay results: paper PMC8063472, “Pharmacokinetics of five phthalides in volatile oil of Ligusticum sinense Oliv.cv. Chaxiong, and comparison study on physicochemistry and pharmacokinetics after being formulated into solid dispersion and inclusion compound” (BMC Complementary Medicine and Therapies, 2021)
Read-outs that look alike come from different tables or passages of the source.

Key:
[1] = Pharmacokinetic study in rats (plasma LC-MS/MS) after iv or oral VOC, oral VOC-P188 or oral VOC-β-CD; format: in vivo, Sprague Dawley rats; conditions: for AUC(0-t) / MRT last / Tmax / half-life / Cmax / bioavailability: male, Sprague-Dawley, rat, plasma; for MRT last: read-out: MRT0-t; for half-life: read-out: t1/2β (converted)
Protocol: The intravenous injection solution was prepared by dissolving 0.15 g of VOC in 25 ml water containing 3 ml 10% Tween-80 as solubilizer. The oral solution was prepared by dissolving 0.35 g of VOC in 25 ml normal saline containing 3 ml 10% Tween-80 as solubilizer. The VOC-P188 solution was prepared by mixing VOC-P188 5 g in 25 ml water with magnetic stirring apparatus. The VOC-β-CD solution was prepared by mixing VOC-β-CD 3.5 g in 25 ml water with magnetic stirring apparatus.
Twenty-four male SD rats (220 ~ 250 g) were randomly divided into four groups, 6 in each group. After fasting for 12 h before administration, the rats in group 1 were given VOC by tail vein injection at a dose of 30 mg/Kg, the rats at second group were oral administration of VOC solution, the dosage was 120 mg/Kg based on the mass of VOC. The rats at groups 3 and 4 were given VOC-P188 and VOC-β-CD, respectively.
Blood samples (0.3 ml) were collected from the eyes at 0.08, 0.17, 0.33, 0.5, 1, 1.5, 2, 4, 6, 8, 12 and 24 h after administration, and they were immediately transferred into a heparinized Eppendorf (EP) tube. The blood samples were then centrifuged at 13,000 r/min for 10 min. The plasma samples were stored at − 80 °C for later analysis.
The thawed plasma sample (0.1 ml) was transferred to another EP tube and 20 μl of DL, 50 μl of 2% formic acid and 500 μl of methanol were added. The mixture was vortexed for 2 min, and centrifuged at 13000 r/min for 10 min. The supernatant was transferred into a clean EP tube, and evaporated to dryness under a stream of nitrogen at 40 °C. The residue was dissolved in 100 μl of methanol. The supernatant was injected into the HPLC system.
An HPLC system consisting of a solvent-delivery system LC-30 AD, an autosampler SIL-30 AC, a column oven CTO-30 AC, a solvent degasser DGU-20A3, and a controller CBM-20A from […] was used in the study. Separation was conducted using a Shim-pack GIST C18-AQ HP column (2.1 mm × 100 mm, 3 μm). The column oven was maintained at 35 °C. The mobile phase was 0.1% formic acid in water as mobile phase A and acetonitrile as mobile phase B. The linear gradient elution program was set according to preliminary tests: 45–60% B, 0–2 min; 60–65% B, 2–6 min; 65–95% B, 6–7 min; 95–45% B, 7–9 min and 45% B, 9–10 min, with the flow rate kept at 0.3 ml/min. The injection volume was set at 2 μl.
The MS analysis was performed on a 4500 QTRAP™ system from Applied Biosystems (AB Sciex) equipped with Turbo V sources and Turbo Ion Spray™ (TIS) interface. Electrospray ionization was performed in positive mode. Ion source: electrospray ion source (ESI source); detection method: multiple reaction monitoring (MRM); ion source temperature: 500 °C; desolvent gas temperature: 550 °C; desolvent gas flow rate: 800 l/h. The detection ion pair, retention time, declustering voltage and collision energy of each index component and internal standard were shown in Table 2.
The plasma SA, NBP, NOL, ZL and BP concentrations were evaluated using the equation from the standard curves that were run with each batch of samples. The plasma concentration-time data were analyzed with the Drug and Statistics 2.0 software package to determine the pharmacokinetic parameters. The observed Cmax value was obtained from the observed data and the observed AUC0 → t value was calculated using the trapezoidal rule. The absolute bioavailability of VOC and the relative bioavailability of VOC-P188 and VOC-β-CD were calculated, the formula for calculating absolute bioavailability (F1) and relative bioavailability (F2): F1=AUCpo×Div/AUCiv×Dpo×100% […]
Where AUC is the area under the temporal curve of blood drug concentration (μg/l*h), D is administration dosage (mg/kg); the subscripts iv and po are injection and oral administration, respectively; the subscript R is reference drug (VOC); the subscript T is solid dispersion or inclusion compound.

[2] = In vitro dissolution, paddle method, pH 5.8 phosphate buffer; format: physicochemical
Protocol: Dissolution studies were performed according to the USP XXI method 2 (paddle method) at 37 ± 0.5 °C at 50 rpm. 900 ml of dissolution medium were used as standard volume. Dissolution samples (1 mL) were withdrawn at the specified times of 15, 30, 45, 60, 90, 120 min from Dissolution cups, and 1 ml of dissolution medium was replenished in the same time. Samples were filtered through a 0.45 μm nylon disc filter and were measured absorbance at 230 nm by HPLC [11].

[3] = VOC iv 30 mg/kg, rat plasma, n = 6
[4] = VOC po 120 mg/kg, rat plasma, n = 6
[5] = VOC-P188 solid dispersion po vs VOC po, rats
[6] = VOC-P188 solid dispersion po, rat plasma, n = 6
[7] = VOC-β-CD inclusion compound po vs VOC po, rats
[8] = VOC-β-CD inclusion compound po, rat plasma, n = 6
[9] = iv, 30 mg/kg, VOC iv 30 mg/kg, rat plasma, n = 6
[10] = iv, 30 mg/kg, VOC iv 30 mg/kg, rat plasma, n = 6, read-out: Tmax
[11] = iv, 30 mg/kg, VOC iv (tail vein) 30 mg/kg, rat plasma, n = 6
[12] = po, 120 mg/kg, VOC po 120 mg/kg, rat plasma, n = 6
[13] = po, 120 mg/kg, VOC po 120 mg/kg, rat plasma, n = 6, read-out: Tmax
[14] = po, 120 mg/kg, after oral administration of VOC, rats, read-out: Tmax (time of peak concentration)
[15] = po, VOC-P188 and VOC-β-CD po, rats, read-out: bioavailability in the two preparations
[16] = po, VOC-P188 solid dispersion po, rat plasma, n = 6
[17] = po, VOC-P188 solid dispersion po, rat plasma, n = 6, read-out: Tmax
[18] = po, VOC-β-CD inclusion compound po, rat plasma, n = 6
[19] = po, VOC-β-CD inclusion compound po, rat plasma, n = 6, read-out: Tmax

SMILES | t1/2α [1, 3] [h] | t1/2α [1, 4] [h] | F2 (relative bioavailability) [1, 5] [%] | t1/2α [1, 6] | F2 (relative bioavailability) [1, 7] [%] | t1/2α [1, 8] | AUC(0-t) [1, 9] [ng·h/mL] | MRT last [1, 9] [min] | Tmax [1, 10] [min] | half-life [1, 9] [min] | Cmax [1, 11] [ng/mL] | AUC(0-t) [1, 12] [ng·h/mL] | Cmax [1, 12] [ng/mL] | MRT last [1, 12] [min] | Tmax [1, 13] [min] | half-life [1, 12] [min] | Tmax [1, 14] [min] | bioavailability [1, 15] [%] | AUC(0-t) [1, 16] [ng·h/mL] | Cmax [1, 16] [ng/mL] | further results
CCC/C=C1\OC(=O)c2ccccc21 [BP] | 0.04 ± 0.04 | 1.38 ± 1.02 | 251.50 | 2.72 ± 3.66 h | 363.55 | 7.02 ± 5.42^* h | 198 ± 42.8 | 76.8 ± 19.2 | 4.98 | 42 ± 32.4 | 373 ± 155 | 99.1 ± 23.3 | 43.7 ± 10.9 | 208 ± 64.8 | 30 ± 16.8 | 224 ± 196 | < 30 | < 50 | 249 ± 24.5 | 40.3 ± 8.37 | MRT last [1, 16]: 445 ± 36 min; Tmax [1, 17]: 25.2 ± 19.8 min; half-life [1, 16]: 518 ± 146 min; AUC(0-t) [1, 18]: 298 ± 31.7 ng·h/mL; Cmax [1, 18]: 38.8 ± 16 ng/mL; MRT last [1, 18]: 507 ± 46.2 min; Tmax [1, 19]: 21 ± 11.4 min; half-life [1, 18]: 1170 ± 338 min; solubility in pH 5.8 PBS [2]: poor solubility
CCCC[C@@H]1OC(=O)c2ccccc21 [NBP, N-butylphthalide, reference compound] | 0.06 ± 0.04 | 0.26 ± 0.10 | 197.67 | 2.82 ± 1.55^** h | 198.39 | 3.95 ± 1.96^** h | 54.6 ± 16.5 | 32.4 ± 13.2 | 4.98 | 15.6 ± 9 | 196 ± 64.5 | 36.1 ± 7.58 | 25.9 ± 8.3 | 162 ± 28.2 | 28.2 ± 4.2 | 39 ± 44.4 | < 30 | < 50 | 72.7 ± 9.8 | 23.5 ± 1.59 | bioavailability ([1]; po, 120 mg/kg, VOC po vs VOC iv, rats, read-out: F1 (absolute bioavailability)): < 25%; MRT last [1, 16]: 244 ± 27.6 min; Tmax [1, 17]: 19.2 ± 12 min; half-life [1, 16]: 188 ± 60.6 min; AUC(0-t) [1, 18]: 76.1 ± 24.6 ng·h/mL; Cmax [1, 18]: 22.4 ± 5.56 ng/mL; MRT last [1, 18]: 317 ± 62.4 min; Tmax [1, 19]: 49.8 ± 15.6 min; half-life [1, 18]: 263 ± 109 min
